Experimental data reported in patent US20240165281A1, “DUAL MODE RADIOTRACER AND THERAPEUTICS” (Technische Universität München, priority 2021, published 2024).

Assays:
LNCaP cells = experiment: Internalization studies in LNCaP cells; assay type: cell-based; conditions: 37° C., 60 min
Procedure: PSMA-positive LNCAP cells (300265; Cell Lines Service, Eppelheim, Germany) were cultivated in Dulbecco modified Eagle medium/Nutrition Mixture F-12 with Glutamax (1:1) (DMEM-F12, Biochrom, Berlin, Germany) supplemented with fetal bovine serum (10%, FBS Zellkultur, Berlin, Germany) and kept at 37° C. in a humidified CO2 atmosphere (5%). A mixture of trypsin and EDTA (0.05%, 0.02%) in PBS (Biochrom) was used in order to harvest cells. Cells were counted with a Neubauer hemocytometer (Paul Marienfeld, Lauda-Königshofen, Germany).
For internalization studies, LNCaP cells were harvested 24±2 hours before the experiment and seeded in poly-L-lysine coated 24-well plates (1.25×10^5 cells in 1 mL/well, Greiner Bio-One, Kremsmünster, Austria). After removal of the culture medium, the cells were washed once with 500 μL DMEM-F12 (5% BSA) and left to equilibrate for at least 15 min at 37° C. in […] DMEM-F12 (5% BSA). Each well was treated with either 25 μL of either DMEM-F12 (5% BSA, control) or 25 μL of a 100 μM PMPA (2-(Phosphonomethyl)-pentandioic acid, Tocris Bioscience, Bristol, UK) solution in PBS, for blockade. Next, 25 μL of the radioactive-labelled PSMA inhibitor (10.0 nM in DMEM-F12 (5% BSA)) was added and the cells were incubated at 37° C. for 60 min. The experiment was terminated by placing the 24-well plate on ice for 3 min and consecutive removal of the medium. Each well was carefully washed with 250 μL of ice-cold HBSS. Both fractions from the first steps, representing the amount of free radioligand, were combined. Removal of surface bound activity was accomplished by incubation of the cells with 250 μL of ice-cold PMPA (10 μM in PBS) solution for 5 min and rinsed again with another 250 μL of ice-cold PBS. The internalized activity was determined by incubation of the cells in 250 μL […] aqueous NaOH for at least 10 min. The obtained fractions were combined with those of the subsequent wash step with 250 μL 1 M aqueous NaOH. Each experiment (control and blockade) was performed in triplicate. Free, surface bound and internalized activity was quantified in a y-counter. All internalization studies were accompanied by external reference studies, using ([^125I]I-BA)KuE (c=0.2 nM), which were performed analogously. Data were corrected for non-specific binding and normalized to the specific-internalization observed for the radioiodinated reference compound.

[1] = system: LNCaP tumor-bearing male CB-17 SCID mice; experiment: Biodistribution studies 24 h p.i.
Procedure: Approximately 3-7 MBq (0.1-0.2 nmol) of the radioactive-labelled PSMA inhibitors were injected into the tail vein of LNCaP tumor-bearing male CB-17 SCID mice and sacrificed after 24 h post injection. Selected organs were removed, weighted and measured in a γ-counter. Results are all decay corrected and given in % injected dose per gram of tissue (% iD/g). Tumor-to-organ ratios are calculated from animals' individual ratios and are given as mean±standard deviation.

[2] = biological target: T1, Human Serum Albumin (HSA) (Homo sapiens, UniProt P02768); experiment: Human serum albumin (HSA) binding by high performance affinity chromatography (HPAC); assay type: in vitro ADME; conditions: Chiralpak HSA column
T1 construct: purchased Daicel H13H-2433
T1 sequence (P02768 25-609): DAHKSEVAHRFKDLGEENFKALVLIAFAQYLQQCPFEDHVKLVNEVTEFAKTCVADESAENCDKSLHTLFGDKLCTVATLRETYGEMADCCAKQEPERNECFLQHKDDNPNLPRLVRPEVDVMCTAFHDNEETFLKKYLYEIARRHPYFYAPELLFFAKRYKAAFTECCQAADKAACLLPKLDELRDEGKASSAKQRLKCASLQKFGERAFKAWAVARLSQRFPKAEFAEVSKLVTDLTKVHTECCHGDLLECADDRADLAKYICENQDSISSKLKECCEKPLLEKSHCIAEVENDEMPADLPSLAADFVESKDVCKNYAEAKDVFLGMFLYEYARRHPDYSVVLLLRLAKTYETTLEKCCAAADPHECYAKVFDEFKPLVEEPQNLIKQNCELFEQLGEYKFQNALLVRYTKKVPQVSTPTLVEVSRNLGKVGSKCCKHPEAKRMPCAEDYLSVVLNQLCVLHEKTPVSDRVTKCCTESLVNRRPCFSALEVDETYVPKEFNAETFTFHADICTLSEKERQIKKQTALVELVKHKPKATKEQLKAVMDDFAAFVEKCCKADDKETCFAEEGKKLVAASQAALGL
Procedure: Determination of Human Serum Albumin (HSA) Binding by High Performance Affinity Chromatography (HPAC)
HSA binding of the PSMA-addressing ligands was determined according to a previously published procedure via HPLC (Valko, K.; Nunhuck, S.; Bevan, C.; Abraham, M. H.; Reynolds, D. P. Journal of pharmaceutical sciences 2003, 92, 2236-2248). A Chiralpak HSA column (50×3 mm, 5 μm, H13H-2433, Daicel, Tokyo, Japan) was used at a constant flow rate of 0.5 mL/min at rt. Mobile phase A was a freshly prepared 50 mM aqueous solution of NH4OAc (pH 6.9) and mobile phase B was isopropanol (HPLC grade, VWR). The applied gradient for all experiments was 100% A (0 to 3 min), followed by 80% A (3 to 40 min). Prior to the experiment, the column was calibrated using nine reference substances with a HSA binding, known from literature, in the range of 13 to 99% (Valko, K.; Nunhuck, S.; Bevan, C.; Abraham, M. H.; Reynolds, D. P. Journal of pharmaceutical sciences 2003, 92, 2236-2248; Yamazaki, K.; Kanaoka, M. Journal of Pharmaceutical sciences 2004, 93, 1480-1494). All substances, including the examined PSMA ligands, were dissolved in a 1:1 mixture (v/v) of isopropanol and a 50 mM aqueous solution of NH4OAc (pH6.9) with a final concentration of 0.5 mg/mL. Non-linear regression was established with the OriginPro 2016G software (Northampton, United States) (FIG. 8).

[3] = mean, listed as [^177Lu]Lu-2C013

**Q.** Which Internalization (LNCaP cells; normalized to ([125I]I-BA)KuE) does the source give for `CC(C)(C)[Si](F)(c1ccc(C(=O)NC[C@@H](NC(=O)CN2CCN(CC(=O)O)CCN(CC(=O)O)CCN(CC(=O)O)CC2)C(=O)N[C@H](CO)C(=O)NCCC(=O)NCCC(=O)NCCC[C@@H](NC(=O)CC[C@H](NC(=O)N[C@@H](CCC(=O)O)C(=O)O)C(=O)O)C(=O)O)cc1)C(C)(C)C` [Compound 2C013] here?
**A.** 141 ± 8^ % IBA-KuE

**Q.** What about the Internalization (LNCaP cells; normalized to reference) of the same compound?
**A.** 141 ± 8 % IBA

**Q.** And the “Kidneys (24 h)” value ([1]; Table 1)?
**A.** 0.95 ± 0.42 % iD/g

**Q.** And the “Tumor (24 h)” value ([1]; Table 1)?
**A.** 7.59 ± 1.23 % iD/g

**Q.** What about the “In vivo biodistribution (24 h p.i.) blood” value ([1]; Table 6) of the same compound?
**A.** 0.0013 ± 0.0007 % iA/g

**Q.** And the “In vivo biodistribution (24 h p.i.) kidney” value ([1]; Table 6)?
**A.** 0.95 ± 0.42 % iA/g

**Q.** What about the “In vivo biodistribution (24 h p.i.) tumor” value ([1]; Table 6) of the same compound?
**A.** 7.59 ± 1.23 % iA/g

**Q.** And the uptake in adrenals ([1]; mean)?
**A.** 0.0618 % iD/g

**Q.** And the uptake in blood ([1]; mean)?
**A.** 0.0013 % iD/g

**Q.** What about the uptake in intestine ([1]; mean) of the same compound?
**A.** 0.3354 % iD/g

**Q.** What about the uptake in kidney ([1]; mean) of the same compound?
**A.** 0.9488 % iD/g

**Q.** What about the uptake in liver ([1]; mean) of the same compound?
**A.** 0.2519 % iD/g

**Q.** And the uptake in lung ([1]; mean)?
**A.** 0.0438 % iD/g

**Q.** And the uptake in pancreas ([1]; mean)?
**A.** 0.0165 % iD/g

**Q.** And the “uptake in parotid gl.” value ([1]; mean)?
**A.** 0.0554 % iD/g

**Q.** And the uptake in spleen ([1]; mean)?
**A.** 0.3891 % iD/g

**Q.** What about the uptake in stomach ([1]; mean) of the same compound?
**A.** 0.0846 % iD/g

**Q.** And the uptake in tumor ([1]; mean)?
**A.** 7.5897 % iD/g

**Q.** And the uptake in bone ([1]; mean, listed as [^177Lu]2C013)?
**A.** 0.037 % iD/g

**Q.** What about the uptake in heart ([1]; mean, listed as [^177Lu]2C013) of the same compound?
**A.** 0.019 % iD/g

**Q.** And the uptake in muscle ([1]; mean, listed as [^177Lu]2C013)?
**A.** 0.004 % iD/g

**Q.** And the “uptake in submand. gl.” value ([1]; mean, listed as [^177Lu]2C013)?
**A.** 0.036 % iD/g

**Q.** What about the uptake in bone [1, 3] of the same compound?
**A.** 0.0370 % iD/g

**Q.** What about the uptake in heart [1, 3] of the same compound?
**A.** 0.0190 % iD/g

**Q.** What about the uptake in muscle [1, 3] of the same compound?
**A.** 0.0040 % iD/g

**Q.** And the “uptake in submand. gl.” value [1, 3]?
**A.** 0.0360 % iD/g

**Q.** And the tumor-to-organ ratio adrenals ([1]; n = 4, mean)?
**A.** 131.27

**Q.** What about the tumor-to-organ ratio blood ([1]; n = 4, mean) of the same compound?
**A.** 6891.48

**Q.** What about the tumor-to-organ ratio bone ([1]; n = 4, mean) of the same compound?
**A.** 208.29

**Q.** What about the tumor-to-organ ratio heart ([1]; n = 4, mean) of the same compound?
**A.** 403.61

**Q.** And the tumor-to-organ ratio intestine ([1]; n = 4, mean)?
**A.** 60.29

**Q.** What about the tumor-to-organ ratio kidney ([1]; n = 4, mean) of the same compound?
**A.** 9.04

**Q.** What about the tumor-to-organ ratio liver ([1]; n = 4, mean) of the same compound?
**A.** 31.82

**Q.** And the tumor-to-organ ratio lung ([1]; n = 4, mean)?
**A.** 189.80

**Q.** And the tumor-to-organ ratio muscle ([1]; n = 4, mean)?
**A.** 2075.70

**Q.** And the tumor-to-organ ratio pancreas ([1]; n = 4, mean)?
**A.** 492.10

**Q.** What about the “tumor-to-organ ratio parotid gl.” value ([1]; n = 4, mean) of the same compound?
**A.** 140.11

**Q.** What about the tumor-to-organ ratio spleen ([1]; n = 4, mean) of the same compound?
**A.** 21.03

**Q.** And the tumor-to-organ ratio stomach ([1]; n = 4, mean)?
**A.** 145.92

**Q.** And the “tumor-to-organ ratio submand. gl.” value ([1]; n = 4, mean)?
**A.** 211.04

**Q.** And the Activity accumulation adrenals ([1]; repeated dataset, n = 5, mean)?
**A.** 0.1327 % ID/g

**Q.** And the Activity accumulation blood ([1]; repeated dataset, n = 5, mean)?
**A.** 0.0016 % ID/g

**Q.** And the Activity accumulation bone ([1]; repeated dataset, n = 5, mean)?
**A.** 0.1331 % ID/g

**Q.** What about the Activity accumulation heart ([1]; repeated dataset, n = 5, mean) of the same compound?
**A.** 0.023 % ID/g

**Q.** And the Activity accumulation intestine ([1]; repeated dataset, n = 5, mean)?
**A.** 0.0615 % ID/g

**Q.** What about the Activity accumulation kidney ([1]; repeated dataset, n = 5, mean) of the same compound?
**A.** 1.0833 % ID/g

**Q.** What about the Activity accumulation liver ([1]; repeated dataset, n = 5, mean) of the same compound?
**A.** 0.3202 % ID/g

**Q.** And the Activity accumulation lung ([1]; repeated dataset, n = 5, mean)?
**A.** 0.0548 % ID/g

**Q.** What about the Activity accumulation muscle ([1]; repeated dataset, n = 5, mean) of the same compound?
**A.** 0.0056 % ID/g

**Q.** And the Activity accumulation pancreas ([1]; repeated dataset, n = 5, mean)?
**A.** 0.0173 % ID/g

**Q.** And the “Activity accumulation parotid gl.” value ([1]; repeated dataset, n = 5, mean)?
**A.** 0.063 % ID/g

**Q.** What about the Activity accumulation spleen ([1]; repeated dataset, n = 5, mean) of the same compound?
**A.** 0.4246 % ID/g

**Q.** What about the Activity accumulation stomach ([1]; repeated dataset, n = 5, mean) of the same compound?
**A.** 0.0349 % ID/g

**Q.** What about the “Activity accumulation submand. gl.” value ([1]; repeated dataset, n = 5, mean) of the same compound?
**A.** 0.038 % ID/g

**Q.** And the Activity accumulation tumor ([1]; repeated dataset, n = 5, mean)?
**A.** 10.1512 % ID/g

**Q.** And the tumor-to-organ ratio adrenals ([1]; repeated dataset, n = 5, mean)?
**A.** 78.58

**Q.** And the tumor-to-organ ratio blood ([1]; repeated dataset, n = 5, mean)?
**A.** 6950.64

**Q.** And the tumor-to-organ ratio bone ([1]; repeated dataset, n = 5, mean)?
**A.** 73.24

**Q.** And the tumor-to-organ ratio heart ([1]; repeated dataset, n = 5, mean)?
**A.** 475.05

**Q.** What about the tumor-to-organ ratio intestine ([1]; repeated dataset, n = 5, mean) of the same compound?
**A.** 263.86

**Q.** And the tumor-to-organ ratio kidney ([1]; repeated dataset, n = 5, mean)?
**A.** 9.48

**Q.** And the tumor-to-organ ratio liver ([1]; repeated dataset, n = 5, mean)?
**A.** 31.51

**Q.** What about the tumor-to-organ ratio lung ([1]; repeated dataset, n = 5, mean) of the same compound?
**A.** 184.32

**Q.** What about the tumor-to-organ ratio muscle ([1]; repeated dataset, n = 5, mean) of the same compound?
**A.** 1867.35

**Q.** What about the tumor-to-organ ratio pancreas ([1]; repeated dataset, n = 5, mean) of the same compound?
**A.** 587.5

**Q.** And the “tumor-to-organ ratio parotid gl.” value ([1]; repeated dataset, n = 5, mean)?
**A.** 172.33

**Q.** What about the tumor-to-organ ratio spleen ([1]; repeated dataset, n = 5, mean) of the same compound?
**A.** 25.43

**Q.** And the tumor-to-organ ratio stomach ([1]; repeated dataset, n = 5, mean)?
**A.** 286.18

**Q.** And the “tumor-to-organ ratio submand. gl.” value ([1]; repeated dataset, n = 5, mean)?
**A.** 270.92

**Q.** What about the T/K-ratio ([1]; tumor/kidney, Table 1) of the same compound?
**A.** 9.04 ± 3.09

**Q.** And the “HSA (HPAC)” value [2]?
**A.** 88.6%
